Data: the supplement of paper PMC11451515

Test system: SEM cells
Test: cell viability relative to DMSO control; higher = less cytotoxic
Details: 48 h
In short: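 Viability, reported as a per-plate percentage of DMSO wells with cell-free wells as background, came from CellTiter-Glo One luminescence. Reading took place after 48 h at 37°C. Before that, NOMO1 or SEM (500 cells/well) or P12-Ichikawa (1000 cells/well) leukemia cells, adapted for at least four passages in each medium, were seeded in 1536-well plates (5 μl) and pin-dosed with library compounds in DMSO, 47 μM to 0.79 nM over 11 threefold points.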

[1] = HPLM + 10% dialyzed FBS, 0.000781 µM
[2] = HPLM + 10% dialyzed FBS, 0.00234 µM
[3] = HPLM + 10% dialyzed FBS, 0.00702 µM
[4] = HPLM + 10% dialyzed FBS, 0.0211 µM
[5] = HPLM + 10% dialyzed FBS, 0.0632 µM
[6] = HPLM + 10% dialyzed FBS, 0.19 µM
[7] = HPLM + 10% dialyzed FBS, 0.569 µM
[8] = HPLM + 10% dialyzed FBS, 1.71 µM
[9] = HPLM + 10% dialyzed FBS, 5.12 µM
[10] = HPLM + 10% dialyzed FBS, 15.4 µM
[11] = HPLM + 10% dialyzed FBS, 46.1 µM
[12] = RPMI 5 mM glucose + 10% FBS, 0.000781 µM
[13] = RPMI 5 mM glucose + 10% FBS, 0.00234 µM
[14] = RPMI 5 mM glucose + 10% FBS, 0.00702 µM
[15] = RPMI 5 mM glucose + 10% FBS, 0.0211 µM
[16] = RPMI 5 mM glucose + 10% FBS, 0.0632 µM
[17] = RPMI 5 mM glucose + 10% FBS, 0.19 µM
[18] = RPMI 5 mM glucose + 10% FBS, 0.569 µM
[19] = RPMI 5 mM glucose + 10% FBS, 1.71 µM
[20] = RPMI 5 mM glucose + 10% FBS, 5.12 µM
[21] = RPMI 5 mM glucose + 10% FBS, 15.4 µM
[22] = RPMI 5 mM glucose + 10% FBS, 46.1 µM
[23] = RPMI 5 mM glucose + 10% dialyzed FBS, 0.000781 µM
[24] = RPMI 5 mM glucose + 10% dialyzed FBS, 0.00234 µM
[25] = RPMI 5 mM glucose + 10% dialyzed FBS, 0.00702 µM
[26] = RPMI 5 mM glucose + 10% dialyzed FBS, 0.0211 µM
[27] = RPMI 5 mM glucose + 10% dialyzed FBS, 0.0632 µM
[28] = RPMI 5 mM glucose + 10% dialyzed FBS, 0.19 µM
[29] = RPMI 5 mM glucose + 10% dialyzed FBS, 0.569 µM
[30] = RPMI 5 mM glucose + 10% dialyzed FBS, 1.71 µM
[31] = RPMI 5 mM glucose + 10% dialyzed FBS, 5.12 µM
[32] = RPMI 5 mM glucose + 10% dialyzed FBS, 15.4 µM
[33] = RPMI 5 mM glucose + 10% dialyzed FBS, 46.1 µM

| Compound | cell viability [1] | cell viability [2] | cell viability [3] | cell viability [4] | cell viability [5] | cell viability [6] | cell viability [7] | cell viability [8] | cell viability [9] | cell viability [10] | cell viability [11] | cell viability [12] | cell viability [13] | cell viability [14] | cell viability [15] | cell viability [16] | cell viability [17] | cell viability [18] | cell viability [19] | cell viability [20] | cell viability [21] | cell viability [22] | cell viability [23] | cell viability [24] | cell viability [25] | cell viability [26] | cell viability [27] | cell viability [28] | cell viability [29] | cell viability [30] | cell viability [31] | cell viability [32] | cell viability [33] |
| --- | --- | --- | --- | --- | --- | --- | --- | --- | --- | --- | --- | --- | --- | --- | --- | --- | --- | --- | --- | --- | --- | --- | --- | --- | --- | --- | --- | --- | --- | --- | --- | --- | --- |
| COc1cccc2c1C(=O)c1c(O)c3c(c(O)c1C2=O)C[C@@](O)(C(=O)CO)C[C@@H]3O[C@H]1C[C@H](N)[C@H](O[C@H]2CCCCO2)[C@H](C)O1 | 101% | 106% | 111% | 103% | 102% | 129% | 102% | 81.8% | 13% | 109% | 72.2% | 79.7% | 84.3% | 89.5% | 91% | 65.2% | 96.1% | 66.6% | 44.8% | 7.83% | 95.8% | 59% | 92.9% | 110% | 119% | 123% | 117% | 115% | 95.8% | 77.3% | 18.3% | 126% | 105% |
| CC(NC(C)(C)C)C(=O)c1cccc(Cl)c1 (configuration not stated) | 94.9% | 120% | 102% | 100% | 109% | 104% | 108% | 64.6% | 127% | 46% | 103% | 106% | 123% | 117% | 108% | 114% | 119% | 127% | 73.2% | 125% | 23.1% | 98.9% | 99.9% | 128% | 123% | 112% | 117% | 140% | 139% | 71.9% | 135% | 35.7% | 126% |
| C[C@@H](NCCCc1cccc(C(F)(F)F)c1)c1cccc2ccccc12 | 121% | 119% | 116% | 117% | 118% | 111% | 120% | 122% | 113% | 106% | 105% | 112% | 124% | 119% | 131% | 107% | 113% | 116% | 114% | 96.5% | 94.3% | 111% | – | – | – | – | – | – | – | – | – | – | – |
| COc1cc([C@@H](CC(=O)O)c2ccc(C)c(CN3C[C@@H](C)Oc4ccccc4[S+]3(=O)[O-])c2)cc2nnn(C)c12 | 97.2% | 104% | 104% | 108% | 106% | 103% | 108% | 102% | 87% | 88.4% | 70.2% | 115% | 111% | 133% | 134% | 87% | 82.6% | 83.7% | 96.6% | 67.5% | 18.1% | 14.5% | 116% | 116% | 110% | 104% | 104% | 78.5% | 83.2% | 89.7% | 74.3% | 64.4% | 53.9% |
| [O-]C(=O)C/1=N/C(=O)NC(=O)N1 | 95.8% | 99.2% | 93.4% | 111% | 85.1% | 20.6% | 94.8% | 99.8% | 100% | 91.6% | 84.3% | 93.7% | 99.6% | 95.6% | 93.6% | 87.4% | 34.2% | 90.8% | 83.7% | 100% | 88.1% | 83.7% | 97.1% | 100% | 101% | 106% | 100% | 34.7% | 96.8% | 89.8% | 104% | 88.7% | 91.8% |
| O=C(O)CCCCC(CCSCc1ccccc1)SCc1ccccc1 (configuration not stated) | 87.7% | 116% | 111% | 110% | 104% | 115% | 113% | 131% | 111% | 119% | 102% | 106% | 102% | 91.5% | 101% | 118% | 124% | 110% | 121% | 115% | 107% | 99.6% | 100% | 106% | 121% | 138% | 116% | 117% | 108% | 125% | 117% | 108% | 93.5% |
| O=[N+]([O-])c1ncc[nH]1 | 86% | 88.2% | 99.9% | 93.1% | 74.6% | 88% | 76.1% | 84% | 89.3% | 79.9% | 55.1% | 98.2% | 91.2% | 94.5% | 113% | 94.9% | 93.5% | 87.2% | 81.3% | 93.9% | 100% | 74.3% | 108% | 97.4% | 101% | 101% | 90.4% | 93.7% | 94.8% | 85.8% | 108% | 106% | 49.8% |
| Cc1nc2cc(C(=O)N3CCC4(CC3)CC(=O)c3c(cnn3C(C)C)C4)ccc2[nH]1 | 55.6% | 106% | 94.6% | 104% | 111% | 114% | 118% | 105% | 106% | 124% | 109% | – | – | – | – | – | – | – | – | – | – | – | 50% | 109% | 115% | 158% | 110% | 122% | 142% | 122% | 118% | 126% | 51.6% |
